Laboratory results from publication PMC5971337, “Development of an Ultra-High Performance Liquid Chromatography Method for Simultaneous Determination of Six Active Compounds in Fructus aurantii and Rat Plasma and Its Application to a Comparative Pharmacokinetic Study in Rats Administered with Different Doses” (Journal of Analytical Methods in Chemistry, 2018).
Like-named read-outs stand apart in the source and are kept apart here.

Key:
[1] = Pharmacokinetic study in rats after oral administration of FA decoction; format: in vivo, Sprague-Dawley rats; conditions: for detection in rat plasma: even after orally administering 30 g/kg FA decoction; for Cmax / AUC(0-t) / Tmax / MRT last / half-life: male, Sprague-Dawley, rat plasma; for AUC(0-t): last dose day 8, plasma treated with β-glucuronidase; for MRT last: read-out: MRT(0–t); for half-life: read-out: t 1/2z (converted); for AUC(0–t) elevation, 30 g/kg compared with the 15 g/kg group / C max elevation, 30 g/kg compared with the 15 g/kg group: rat, oral FA decoction
Protocol: 16 male Sprague-Dawley (SD) rats weighing 200 ± 20 g were from experimental animal center of Central South University and fostered in an environmentally controlled room (temperature: 22–26°C, humidity: 40–60%, and 12 h dark-light cycle) for 1 week before the experiment. All experimental procedures were implemented strictly according to the guidelines of the Animal Care and Use Committee, Central South University, China. This research was approved by the Animal Ethics Committee of Central South University. Rats were randomly divided into 2 groups (n=8): low-dose group (15 g/kg FA decoction) and high-dose group (30 g/kg FA decoction). The two groups were given by gavage twice a day for 7 days in succession. At the 7th day of medication, the rats were prohibited feeding for about 12 hours without restriction of water. On day 8, the rats were orally administered for the last time at 8 am, and then plasma samples (0.5 mL) were collected from the caudal vein at 5, 10, 20, 30, 60, 90, 240, 360, 480, and 600 min into heparinized vacuum tubes, followed by centrifugation at 3500 rpm (4°C) for 10 min. Then, the plasmas were obtained and immediately stored at −20°C until analysis. During the experiment, the rats were injected intraperitoneally with physiological saline for maintaining fluid balance.
(§1) Standard stock solutions were prepared by dissolving reference standards in methanol to yield concentrations of 198 µg/mL for meranzin hydrate, 128 µg/mL for naringenin, 273 µg/mL for hesperetin, and 4.56 µg/mL for SMZ. All solutions were stored at 4°C. QC samples were prepared at three concentration levels containing meranzin hydrate (6.5, 206, 3300 ng/mL), naringenin (13.9, 222, 3555 ng/mL), and hesperetin (3.7, 29.5, 236 ng/mL). Plasmas (100 µL) were spiked with β-glucuronidase (5 µL) and acetic acid buffer solution (10 µL), subsequently vortexed for 10 seconds, and incubated for 4 h at 37°C. Then, SMZ (50 µL) and methanol (135 µL) were added, ultrasound was done for 10 min, and centrifugation at 12000 rpm (4°C) for 10 min was performed. The supernatant (50 µL) was transferred, distilled water (50 µL) was added, then ultrasound and centrifugation again. At last, the supernatant of 5 µL was injected into UPLC.
The database was set up with the SPSS 17.0 software package from SPSS Inc., Chicago, Illinois (US). Differences between the two groups were analyzed by one-way analysis of variance. A two-tailed P value of <0.05 was considered statistically significant. The DAS 3.2.8 pharmacokinetic program (Chinese Pharmacological Society) was used to process pharmacokinetic parameters.
The validated method was applied to determine the plasma concentrations of meranzin hydrate, naringenin, and hesperetin in rats after oral administration of FA decoction at a dose of 15 g/kg and 30 g/kg body weight. The mean plasma concentration-time profiles of meranzin hydrate, naringenin, and hesperetin are shown in Figure 4, and the estimated pharmacokinetic parameters are illustrated in Table 5. According to DAS software, the optimal metabolism process of the 3 components in rats could be depicted as a two-compartment pharmacokinetic model.

[2] = Stability of the analytical solution of FA decoction at environmental temperature; format: physicochemical; conditions: FA decoction 1.7 g/mL
Protocol: The raw herb (200 g) was immersed in distilled water (1 : 8, w/v) for 0.5 h at room temperature and thereafter was boiled for 0.5 h. The filtrate was collected, and the residue was boiled again in distilled water (1 : 6, w/v) for 0.5 h. The filtrates were mixed together, filtered through a 0.45 µm porous filtration membrane, then farther concentrated in the rotary evaporator to a final concentration equivalent to 1.7 g/mL FA, and stored at −20°C until analyzed. In the experiment, FA decoction (100 µL) was precisely measured, 900 µL methanol was added, then ultrasound was done for 5 min, and it was centrifuged at 15000 rpm (4°C) for 10 min; the supernatant liquor (20 µL) was shifted to a 1.5 mL EP tube, methanol-water (780 µL) was added, and ultrasound was performed, and it was centrifuged at 15000 rpm (4°C) for 10 min again. Finally, 5 µL of the supernatant liquor was injected into the apparatus for detection.
The stability of the analytical solution at environmental temperature was studied by detecting sample solution at 0, 2, 4, 8, 12, and 24 h. The RSD values of peak areas were taken for assessment.

[3] = Stability of QC samples in rat plasma (short-term, freeze-thaw, long-term); format: in vitro ADME; conditions: for Short-term stability, Mean ± SD: room temperature for 4 h; for Freeze-thaw stability, Mean ± SD: three freeze (−20°C) and thaw cycles; for Long-term stability, Mean ± SD: −20°C for 20 days
Protocol: as §1
(5) Stability. QC plasma samples of each concentration at low, medium, and high levels were detected. The freeze and thaw stability were investigated after three freeze (−20°C) and thaw (room temperature) cycles on consecutive days. Long-term stability was studied by storing QC samples at −20°C for 20 days. Short-term stability was assessed by analyzing QC samples kept at room temperature for 4 h.

[4] = oral FA decoction 15 g/kg twice a day for 7 days, n=8
[5] = oral FA decoction 30 g/kg twice a day for 7 days, n=8
[6] = high level (spiked 3300.0 / 3555.0 / 236.0 ng/mL)
[7] = low level (spiked 6.5 / 13.9 / 3.7 ng/mL)
[8] = medium level (spiked 206.0 / 222.0 / 29.5 ng/mL)

| detection in rat plasma [1] | Stability in FA decoction, Content ([2]; 0h) [mg/mL] | Stability in FA decoction, Content ([2]; 2h) [mg/mL] | Stability in FA decoction, Content ([2]; 4h) [mg/mL] | Stability in FA decoction, Content ([2]; 8h) [mg/mL] | Stability in FA decoction, Content ([2]; 12h) [mg/mL] | Stability in FA decoction, Content ([2]; 24h) [mg/mL] | AUC(0-t) [1, 4] [ng·h/mL] | Cmax ([1]; oral FA decoction 15 g/kg, n=8) [ng/mL] | Tmax ([1]; oral FA decoction 15 g/kg, n=8) [h] | MRT last ([1]; oral FA decoction 15 g/kg, n=8) [h] | half-life ([1]; oral FA decoction 15 g/kg, n=8) [h] | AUC(0-t) [1, 5] [ng·h/mL] | Cmax ([1]; oral FA decoction 30 g/kg, n=8) [ng/mL] | Tmax ([1]; oral FA decoction 30 g/kg, n=8) [h] | MRT last ([1]; oral FA decoction 30 g/kg, n=8) [h] | half-life ([1]; oral FA decoction 30 g/kg, n=8) [h] | AUC(0–t) elevation, 30 g/kg compared with the 15 g/kg group [1] [fold] | C max elevation, 30 g/kg compared with the 15 g/kg group [1] [fold] | Short-term stability, Mean ± SD [3, 6] [ng/mL] | Compound | further results |
| --- | --- | --- | --- | --- | --- | --- | --- | --- | --- | --- | --- | --- | --- | --- | --- | --- | --- | --- | --- | --- | --- |
| could not been detected | 4.95 | 4.83 | 4.71 | 5.02 | 4.87 | 4.82 | – | – | – | – | – | – | – | – | – | – | – | – | – | COc1ccc([C@@H]2CC(=O)c3c(O)cc(O[C@@H]4O[C@H](CO[C@@H]5O[C@@H](C)[C@H](O)[C@@H](O)[C@H]5O)[C@@H](O)[C@H](O)[C@H]4O)cc3O2)cc1O [hesperidin] | – |
| could not been detected | 14.33 | 14.28 | 13.98 | 14.40 | 14.11 | 14.08 | – | – | – | – | – | – | – | – | – | – | – | – | – | COc1ccc([C@@H]2CC(=O)c3c(O)cc(O[C@@H]4O[C@H](CO)[C@@H](O)[C@H](O)[C@H]4O[C@@H]4O[C@@H](C)[C@H](O)[C@@H](O)[C@H]4O)cc3O2)cc1O [neohesperidin] | – |
| – | 0.19 | 0.19 | 0.18 | 0.18 | 0.19 | 0.18 | 508 ± 88 | 83.9 ± 14.2 | 1 ± 0.38 | 4.27 ± 0.27 | 8.05 ± 3.1 | 955 ± 227 | 174 ± 39 | 1.31 ± 0.26 | 4.15 ± 0.35 | 6.56 ± 3.35 | 1.88 | 2.08 | 234.18 ± 22.13 | COc1ccc([C@@H]2CC(=O)c3c(O)cc(O)cc3O2)cc1O [Hesperetin, hesperetin] | Cmax ([1]; oral, 15 g/kg group): 83.9 ± 14.2 ng/mL; Cmax ([1]; oral, 30 g/kg group): 174 ± 39 ng/mL; Freeze-thaw stability, Mean ± SD [3, 6]: 235.03 ± 19.71 ng/mL; Long-term stability, Mean ± SD [3, 6]: 235.66 ± 14.53 ng/mL; Short-term stability, Mean ± SD [3, 7]: 3.63 ± 0.87 ng/mL; Freeze-thaw stability, Mean ± SD [3, 7]: 3.52 ± 0.43 ng/mL; Long-term stability, Mean ± SD [3, 7]: 3.67 ± 0.57 ng/mL; Short-term stability, Mean ± SD [3, 8]: 27.88 ± 3.50 ng/mL; Freeze-thaw stability, Mean ± SD [3, 8]: 28.35 ± 4.03 ng/mL; Long-term stability, Mean ± SD [3, 8]: 28.28 ± 1.65 ng/mL |
| could not been detected | 25.24 | 25.35 | 24.92 | 25.45 | 24.98 | 25.15 | – | – | – | – | – | – | – | – | – | – | – | – | – | C[C@@H]1O[C@@H](O[C@H]2[C@H](Oc3cc(O)c4c(c3)O[C@H](c3ccc(O)cc3)CC4=O)O[C@H](CO)[C@@H](O)[C@@H]2O)[C@H](O)[C@H](O)[C@H]1O [naringin] | – |
| – | 0.27 | 0.26 | 0.26 | 0.26 | 0.26 | 0.25 | 3660 ± 861 | 694 ± 208 | 1.13 ± 0.35 | 4.06 ± 0.33 | 8.59 ± 9.25 | 11200 ± 1410 | 2580 ± 388 | 0.81 ± 0.26 | 3.89 ± 0.21 | 5.67 ± 2.9 | 3.05 | 3.72 | 3549.93 ± 455.39 | O=C1C[C@@H](c2ccc(O)cc2)Oc2cc(O)cc(O)c21 [Naringenin, naringenin] | Freeze-thaw stability, Mean ± SD [3, 6]: 3552.68 ± 409.74 ng/mL; Long-term stability, Mean ± SD [3, 6]: 3550.10 ± 450.62 ng/mL; Short-term stability, Mean ± SD [3, 7]: 13.03 ± 2.28 ng/mL; Freeze-thaw stability, Mean ± SD [3, 7]: 13.44 ± 4.79 ng/mL; Long-term stability, Mean ± SD [3, 7]: 13.32 ± 5.05 ng/mL; Short-term stability, Mean ± SD [3, 8]: 217.05 ± 22.66 ng/mL; Freeze-thaw stability, Mean ± SD [3, 8]: 219.51 ± 35.50 ng/mL; Long-term stability, Mean ± SD [3, 8]: 220.06 ± 34.22 ng/mL |
| – | 0.34 | 0.36 | 0.33 | 0.34 | 0.35 | 0.34 | 1530 ± 252 | 505 ± 64.3 | 1 ± 0.27 | 2.77 ± 0.34 | 2.67 ± 0.81 | 7370 ± 887 | 1830 ± 221 | 1.25 ± 0.27 | 3.21 ± 0.22 | 2.23 ± 0.59 | 4.8 | 3.62 | – | COc1ccc2ccc(=O)oc2c1C[C@@H](O)C(C)(C)O [Meranzin hydrate, meranzin hydrate] | – |
